Measured values taken from patent US20170050957A1, “4-AMINO-6-(HETEROCYCLIC)PICOLINATES AND 6-AMINO-2-(HETEROCYCLIC)PYRIMIDINE-4-CARBOXYLATES AND THEIR USE AS HERBICIDES” (Dow AgroSciences LLC, priority 2013, published 2017).
Read-outs that look alike come from different tables or passages of the source.

Assays:
[1] = tested on: Key Broadleaf Weed and Crop Species; test: Post-emergent Test II herbicidal activity (Table 15); type: in vivo; details: post-emergence, 336 h, 14 d; for pest or weed control at 35 g/ha: 35 g ai/ha; for pest or weed control at 70 g/ha: 70 g ai/ha; for pest or weed control at 140 g/ha: 140 g ai/ha
How it was run: (§1)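 Plants at first-second true leaf stage, grown 7-21 d in greenhouse (~15 h photoperiod, 23-29 °C day), were track-sprayed at 187 L/ha with compound in acetone/DMSO/water/isopropanol/crop oil/Triton X-155 at a high rate plus 1/2× to 1/16× dilutions. Injury scored visually after 14 d versus untreated plants, 0 (none) to 100% (complete kill).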

[2] = tested on: Key Grass and Sedge Weeds as well as Grass Crops; test: Post-emergent Test II herbicidal activity (Table 16); type: in vivo; details: post-emergence, 336 h; for pest or weed control at 35 g/ha: 35 g ai/ha; for pest or weed control at 70 g/ha: 70 g ai/ha; for pest or weed control at 140 g/ha: 140 g ai/ha
How it was run: as §1

[3] = Abutilon theophrasti, velvetleaf (Abutilon theophrasti), read-out: Visual Growth Reduction (%) 14 Days After Application, ABUTH
[4] = Amaranthus retroflexus, redroot pigweed (Amaranthus retroflexus), read-out: Visual Growth Reduction (%) 14 Days After Application, AMARE
[5] = Brassica napus, oilseed rape, canola (Brassica napus), read-out: Visual Growth Reduction (%) 14 Days After Application, BRSNN
[6] = Chenopodium album, lambsquarters (Chenopodium album), read-out: Visual Growth Reduction (%) 14 Days After Application, CHEAL
[7] = Euphorbia heterophylla, wild poinsettia (Euphorbia heterophylla), read-out: Visual Growth Reduction (%) 14 Days After Application, EPHHL
[8] = Helianthus annuus, sunflower (Helianthus annuus), read-out: Visual Growth Reduction (%) 14 Days After Application, HELAN
[9] = Cyperus esculentus, yellow nutsedge (Cyperus esculentus), 14 days after application, read-out: Visual Growth Reduction (%) 14 Days After Application CYPES
[10] = Echinochloa crus-galli, barnyardgrass (Echinochloa crus-galli), 14 days after application, read-out: Visual Growth Reduction (%) 14 Days After Application ECHCG
[11] = Oryza sativa, rice (Oryza sativa), 14 days after application, read-out: Visual Growth Reduction (%) 14 Days After Application ORYSA
[12] = Setaria faberi, giant foxtail (Setaria faberi), 14 days after application, read-out: Visual Growth Reduction (%) 14 Days After Application SETFA
[13] = Triticum aestivum, wheat, spring (Triticum aestivum), 14 days after application, read-out: Visual Growth Reduction (%) 14 Days After Application TRZAS
[14] = Zea mays, maize, corn (Zea mays), 14 days after application, read-out: Visual Growth Reduction (%) 14 Days After Application ZEAMX

| Compound | melting point [°C] | pest or weed control at 35 g/ha [1, 3] [%] | pest or weed control at 70 g/ha [1, 3] [%] | pest or weed control at 140 g/ha [1, 3] [%] | pest or weed control at 35 g/ha [1, 4] [%] | pest or weed control at 70 g/ha [1, 4] [%] | pest or weed control at 140 g/ha [1, 4] [%] | pest or weed control at 35 g/ha [1, 5] [%] | pest or weed control at 70 g/ha [1, 5] [%] | pest or weed control at 140 g/ha [1, 5] [%] | pest or weed control at 35 g/ha [1, 6] [%] | pest or weed control at 70 g/ha [1, 6] [%] | pest or weed control at 140 g/ha [1, 6] [%] | pest or weed control at 35 g/ha [1, 7] [%] | pest or weed control at 70 g/ha [1, 7] [%] | pest or weed control at 140 g/ha [1, 7] [%] | pest or weed control at 35 g/ha [1, 8] [%] | pest or weed control at 70 g/ha [1, 8] [%] | pest or weed control at 140 g/ha [1, 8] [%] | pest or weed control at 70 g/ha [2, 9] [%] | also measured |
| --- | --- | --- | --- | --- | --- | --- | --- | --- | --- | --- | --- | --- | --- | --- | --- | --- | --- | --- | --- | --- | --- |
| Cc1c(-c2ccc3sccc3c2)nc(C(=O)O)c(Cl)c1N [Compound 3.07] | 159 to 165 | 0 to 29 | 0 to 29 | 0 to 29 | 0 to 29 | 60 to 74 | 75 to 84 | 45 to 59 | 60 to 74 | 60 to 74 | 0 to 29 | 0 to 29 | 75 to 84 | 0 to 29 | 0 to 29 | 0 to 29 | 85 to 94 | 85 to 94 | 85 to 94 | 0 to 29 | pest or weed control at 35 g/ha ([2]; Cyperus esculentus, yellow nutsedge (Cyperus esculentus), 14 d, read-out: Visual Growth Reduction (%) 14 Days After Application, CYPES): 0 to 29%; pest or weed control at 140 g/ha [2, 9]: 0 to 29%; pest or weed control at 35 g/ha ([2]; Echinochloa crus-galli, barnyardgrass (Echinochloa crus-galli), 14 d, read-out: Visual Growth Reduction (%) 14 Days After Application, ECHCG): 0 to 29%; pest or weed control at 70 g/ha [2, 10]: 0 to 29%; pest or weed control at 140 g/ha [2, 10]: 0 to 29%; pest or weed control at 35 g/ha ([2]; Oryza sativa, rice (Oryza sativa), 14 d, read-out: Visual Growth Reduction (%) 14 Days After Application, ORYSA): 0 to 29%; pest or weed control at 70 g/ha [2, 11]: 0 to 29%; pest or weed control at 140 g/ha [2, 11]: 0 to 29%; pest or weed control at 35 g/ha ([2]; Setaria faberi, giant foxtail (Setaria faberi), 14 d, read-out: Visual Growth Reduction (%) 14 Days After Application, SETFA): 0 to 29%; pest or weed control at 70 g/ha [2, 12]: 0 to 29%; pest or weed control at 140 g/ha [2, 12]: 0 to 29%; pest or weed control at 35 g/ha ([2]; Triticum aestivum, wheat, spring (Triticum aestivum), 14 d, read-out: Visual Growth Reduction (%) 14 Days After Application, TRZAS): 0 to 29%; pest or weed control at 70 g/ha [2, 13]: 0 to 29%; pest or weed control at 140 g/ha [2, 13]: 0 to 29%; pest or weed control at 35 g/ha ([2]; Zea mays, maize, corn (Zea mays), 14 d, read-out: Visual Growth Reduction (%) 14 Days After Application, ZEAMX): 0 to 29%; pest or weed control at 70 g/ha [2, 14]: 0 to 29%; pest or weed control at 140 g/ha [2, 14]: 0 to 29% |
| COC(=O)c1nc(-c2ccc3sccc3c2)nc(N)c1OC [Compound 3.08] | 125 to 127 | 0 to 29 | 30 to 44 | 30 to 44 | 0 to 29 | 30 to 44 | 60 to 74 | 0 to 29 | 0 to 29 | 30 to 44 | 85 to 94 | 85 to 94 | 85 to 94 | 60 to 74 | 75 to 84 | 85 to 94 | 60 to 74 | 75 to 84 | 85 to 94 | 0 to 29 | pest or weed control at 35 g/ha [2, 9]: 0 to 29%; pest or weed control at 140 g/ha [2, 9]: 30 to 44%; pest or weed control at 35 g/ha [2, 10]: 0 to 29%; pest or weed control at 70 g/ha [2, 10]: 0 to 29%; pest or weed control at 140 g/ha [2, 10]: 75 to 84%; pest or weed control at 35 g/ha [2, 11]: 0 to 29%; pest or weed control at 70 g/ha [2, 11]: 0 to 29%; pest or weed control at 140 g/ha [2, 11]: 0 to 29%; pest or weed control at 35 g/ha [2, 12]: 0 to 29%; pest or weed control at 70 g/ha [2, 12]: 0 to 29%; pest or weed control at 140 g/ha [2, 12]: 0 to 29%; pest or weed control at 35 g/ha [2, 13]: 45 to 59%; pest or weed control at 70 g/ha [2, 13]: 60 to 74%; pest or weed control at 140 g/ha [2, 13]: 60 to 74%; pest or weed control at 35 g/ha [2, 14]: 30 to 44%; pest or weed control at 70 g/ha [2, 14]: 60 to 74%; pest or weed control at 140 g/ha [2, 14]: 75 to 84% |
